Converted amounts (≈) assume the structure as drawn. Read-outs that look alike come from different tables or passages of the source.
How the values were obtained:
HsKRS = molecular target: T1, HsKRS (Homo sapiens, UniProt Q15046); assay: HsKRS in vitro enzyme assay; assay type: biochemical; conditions: mean (95% confidence interval)
T1 construct: made in house

Calf tolerability study = assay type: in vivo; conditions: 15 mg/kg twice daily oral 7 days
Description: Calf efficacy and tolerability study
Calf tolerability study (Moredun Scientific)
A tolerability study was conducted on uninfected calves prior to efficacy studies to confirm palatability and tolerance. Starting at day 2 post birth (“Day 1”), DDD489 or DDD508 were administered to four male calves per treatment group. The test compound was dosed at 15 mg/kg (maximum volume of 20 ml per occasion; prepared in vehicle: 0.5% HPMC, 0.4% Tween 80, 0.5% Benzyl alcohol in sterile water) for a total of 7 days. Administration was by oral gavage twice daily immediately prior to milk feeds, and at least 8 hours apart (± 30 minutes). Body weight was measured on day 0 and day 7, and clinical observations were recorded twice a day during dosing. Blood samples were collected from all animals prior to the morning treatment on Day 1, then 5 (± 2) minutes, 15 (± 2) minutes, 30 (± 5) minutes, 1, 2, 4, 8 and 24 hours (± 10 minutes) post first daily dose. This sample schedule was repeated on Day 7 for the same animals. Blood samples were processed to plasma. […]

Mouse pharmacokinetics = conditions: for AUC / Vd / half-life / Cmax / Tmax / bioavailability: female, BALB/C, whole blood; for AUC / Vd / half-life / Cmax / Tmax / bioavailability / Clb: mouse; for CLB: mouse IV 3 mg/kg, clearance in blood; for Clb: percent of liver blood flow; for mean free (unbound) drug concentration relative to EC90: uninfected mice, 10 mg/kg oral single dose
Description: Uninfected mice were administered a single oral (10 mg/kg) dose of either DDD489 or DDD508 using the same formulation and dose concentration as for the efficacy study. Blood samples were collected at various time points after drug administration (15, 30, 60, 120, 180, 240, and 480 minutes) and analyzed to produce a concentration-time plot of unbound drug concentration (Fig. 3). […]
Mouse pharmacokinetics (Dundee)
As previously described.(27)
Test compound was dosed as a bolus solution intravenously (IV) at 3mg/kg (dose volume: 5 mL/kg; dose vehicle: 10% DMSO; 40% PEG 400; 50% Milli-Q water) or dosed orally (PO) by gavage as a suspension at 10mg/kg (dose volume: 10 mL/kg; dose vehicle: 1% CMC to female BALB/C mice (n = 3/dose route). Blood samples were taken from each mouse at 5, 15, 30 min, 1, 2, 4, 6, 8 h mixed with nine volumes of Milli-Q water and stored frozen until UPLC/MS/MS analysis. Pharmacokinetic parameters were derived from the blood concentration-time curve using PK solutions software v2.0 (Summit Research Services, USA).

FaSSIF solubility = assay type: physicochemical; conditions: Fasted State Simulated Intestinal Fluid
[1] = Hepatocyte intrinsic clearance, rat; assay type: in vitro ADME; conditions: rat hepatocytes
[2] = Hepatocyte intrinsic clearance, human; assay type: in vitro ADME; conditions: human hepatocytes
[3] = Plasma protein binding, rat; assay type: in vitro ADME; conditions: read-out: PPB (r) (converted)
[4] = Plasma protein binding, human; assay type: in vitro ADME; conditions: read-out: PPB (h) (converted)
CYP450 1A2 = CYP450 1A2 (Homo sapiens, UniProt P05177); assay: CYP450 inhibition 1A2; assay type: in vitro ADME
Sequence of CYP450 1A2 (P05177 whole entry): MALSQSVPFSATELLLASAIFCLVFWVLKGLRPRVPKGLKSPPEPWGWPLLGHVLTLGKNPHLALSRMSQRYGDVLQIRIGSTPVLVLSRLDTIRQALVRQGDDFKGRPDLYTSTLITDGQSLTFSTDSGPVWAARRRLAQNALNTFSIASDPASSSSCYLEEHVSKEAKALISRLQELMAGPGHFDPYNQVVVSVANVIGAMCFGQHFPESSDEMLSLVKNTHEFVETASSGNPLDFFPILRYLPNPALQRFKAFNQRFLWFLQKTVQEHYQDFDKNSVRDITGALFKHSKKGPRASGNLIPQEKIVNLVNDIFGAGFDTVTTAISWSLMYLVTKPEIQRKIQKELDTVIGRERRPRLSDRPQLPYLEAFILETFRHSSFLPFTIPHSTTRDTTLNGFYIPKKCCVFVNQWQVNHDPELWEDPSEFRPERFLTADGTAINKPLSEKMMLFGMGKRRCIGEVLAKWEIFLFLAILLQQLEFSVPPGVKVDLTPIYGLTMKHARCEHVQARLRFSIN
Description: (§1) CYP450 inhibition (Dundee)
(§2) As previously described.(31)
(§3) DDD489 and DDD508 were evaluated for their ability to induce reverse mutations both in the presence and absence of S9 mix at the histidine locus in the genome of four strains of Salmonella typhimurium (TA98, TA100, TA1535, and TA97a) and at the tryptophan locus in the genome of Escherichia coli WP2 uvrA in a mini-Ames study conducted at WuXi App Tec […]
(§4) hERG inhibition (WuXi App Tec)
(§5) DDD489 and DDD508 were evaluated for their effects on cloned hERG potassium channels stably expressed in Chinese Hamster Ovary (CHO) cells using manual patch-clamp technique in a hERG inhibition assay conducted at WuXi App Tec (Suzhou).
(§6) Mitochondrial toxicity (Cyprotex)
(§7) DDD489 and DDD508 were evaluated for their effects on mitochondrial function in a functional mitochondrial toxicity assay using Seahorse XFe96 flux analyser conducted at […]
(§8) 44 screen safety panel (Eurofins)
(§9) DDD489 was evaluated for off-target effects in a SafetyScreen44 panel at Eurofins Cerep.
(§10) All regulated procedures, at the University of Dundee, on living animals were carried out under the authority of a project license issued by the Home Office under the Animals (Scientific Procedures) Act 1986, as amended in 2012 (and in compliance with EU Directive EU/2010/63). […]

CYP450 2C9 = CYP450 2C9 (Homo sapiens, UniProt P11712); assay: CYP450 inhibition 2C9; assay type: in vitro ADME
Sequence of CYP450 2C9 (P11712 whole entry): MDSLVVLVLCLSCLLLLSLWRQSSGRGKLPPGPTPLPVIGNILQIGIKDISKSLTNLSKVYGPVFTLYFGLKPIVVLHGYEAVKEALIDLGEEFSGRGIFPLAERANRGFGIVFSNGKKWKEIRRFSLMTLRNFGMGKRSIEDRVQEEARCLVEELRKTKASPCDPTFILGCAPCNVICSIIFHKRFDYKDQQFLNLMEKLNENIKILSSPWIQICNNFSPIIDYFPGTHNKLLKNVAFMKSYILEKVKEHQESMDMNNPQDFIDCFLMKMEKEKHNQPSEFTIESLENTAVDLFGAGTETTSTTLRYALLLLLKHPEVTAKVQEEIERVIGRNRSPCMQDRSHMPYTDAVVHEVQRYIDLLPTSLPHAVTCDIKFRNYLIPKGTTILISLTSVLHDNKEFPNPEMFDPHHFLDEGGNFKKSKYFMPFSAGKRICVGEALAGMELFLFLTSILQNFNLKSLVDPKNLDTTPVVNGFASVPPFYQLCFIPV
Description: as §1, §2, §3, §4, §5, §6, §7, §8, §9, §10

[5] = system: Salmonella typhimurium (TA98, TA100, TA1535, and TA97a) and Escherichia coli WP2 uvrA; assay: Mini-Ames; assay type: cell-based; conditions: presence and absence of S9 mix
mitochondrial function = assay: Functional mitochondrial toxicity assay (Seahorse XFe96); assay type: cell-based
CpKRS = CpKRS (Cryptosporidium parvum, UniProt Q5CR27); assay: CpKRS in vitro enzyme assay
Sequence of CpKRS (Q5CR27 entry or part of it): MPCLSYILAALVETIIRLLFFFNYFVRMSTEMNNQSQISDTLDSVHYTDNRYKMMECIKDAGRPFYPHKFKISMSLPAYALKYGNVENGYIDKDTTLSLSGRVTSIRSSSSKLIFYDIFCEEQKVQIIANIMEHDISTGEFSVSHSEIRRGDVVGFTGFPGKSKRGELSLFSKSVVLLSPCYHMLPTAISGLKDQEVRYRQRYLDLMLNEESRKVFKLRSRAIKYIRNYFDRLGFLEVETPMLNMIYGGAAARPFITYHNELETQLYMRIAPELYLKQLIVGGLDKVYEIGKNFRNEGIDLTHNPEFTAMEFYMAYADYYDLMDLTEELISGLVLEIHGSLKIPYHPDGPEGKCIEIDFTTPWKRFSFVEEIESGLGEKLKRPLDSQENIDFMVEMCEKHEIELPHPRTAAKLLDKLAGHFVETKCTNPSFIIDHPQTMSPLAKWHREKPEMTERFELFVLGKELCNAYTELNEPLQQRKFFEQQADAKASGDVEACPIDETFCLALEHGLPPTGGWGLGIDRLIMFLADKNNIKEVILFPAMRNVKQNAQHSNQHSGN
Description: CpKRS in vitro enzyme assay (Dundee)
Potency of compounds was determined in 10-point dose-response inhibition curves.
Echo 550 acoustic dispenser (Labcyte). KRS reactions were started by adding enzyme into wells containing substrate and compounds using a Thermo Scientiﬁ c Matrix Wellmate. KRS assays were run in 50 µL reactions (Final concentration: 100 mM HEPES*K pH 7.4, 20 mM
Pyrophosphatase) at room temperature for 7 h. Reactions were stopped by the addition of Biomol green (50 µL: Enzo Life Sciences) with the amount of free phosphate detected by
Samples were all run in duplicate and data was processed and analyzed using ActivityBase

C. hominis = C. hominis growth inhibition in HCT-8 co-culture (image-based); conditions: Cryptosporidium hominis, HCT-8, 48 h, read-out: C. hominis EC50
Description: Cryptosporidium in vitro inhibition (Vermont and Dundee)
Compounds were prepared in 100% DMSO and added at the time of infection (NLuc) or 3 hours post infection (imaging assays). Compounds were prepared at 1% final concentration DMSO in culture. Parasites were quantified at 48 hours post infection. NanoLuciferase was measured using a GloMax Discovery, Promega.
A Nikon Ecl ipse Ti2000 epifluorescence microscope with an automated stage was programmed to focus on the center of each well and take a 3×3 composite image using an EXi blue fluorescence microscopy camera (QImaging) with a 20X objective (NA = 0.45). Nuclei and parasite images were separately exported as .tif files, and parasites and host cells were counted using custom NIH ImageJ macros as reported previously.(29) Dose−response curves were

[6] = read-out: Oxygen consumption AC50

T1 sequence (Q15046 whole entry): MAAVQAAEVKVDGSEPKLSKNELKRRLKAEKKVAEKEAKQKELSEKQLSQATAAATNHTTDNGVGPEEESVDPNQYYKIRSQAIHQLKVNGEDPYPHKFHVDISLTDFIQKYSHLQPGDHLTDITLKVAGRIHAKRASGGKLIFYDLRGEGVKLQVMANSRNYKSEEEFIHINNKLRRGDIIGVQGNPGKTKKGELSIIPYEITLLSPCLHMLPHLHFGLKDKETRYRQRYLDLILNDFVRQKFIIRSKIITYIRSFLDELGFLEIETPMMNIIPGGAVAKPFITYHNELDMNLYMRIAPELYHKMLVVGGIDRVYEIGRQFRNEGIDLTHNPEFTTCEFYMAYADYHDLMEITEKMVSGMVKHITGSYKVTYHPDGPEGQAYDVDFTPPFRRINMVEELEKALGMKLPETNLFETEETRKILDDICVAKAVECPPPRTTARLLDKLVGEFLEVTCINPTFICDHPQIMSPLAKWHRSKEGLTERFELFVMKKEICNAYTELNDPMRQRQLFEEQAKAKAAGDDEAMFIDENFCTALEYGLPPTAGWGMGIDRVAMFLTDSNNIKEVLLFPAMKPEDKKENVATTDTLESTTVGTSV

**Q.** Which results are given for `O=C(NCC1(O)CCCCC1)c1cc(=O)c2cc(O)ccc2o1` [DDD508]?
**A.** IC50 (HsKRS): 10 µM; tolerability in uninfected calves (Calf tolerability study): well tolerated; AUC (Mouse pharmacokinetics; iv, 3 mg/kg): 1480 ng·h/mL; Vd (Mouse pharmacokinetics; iv, 3 mg/kg): 1.8 L/kg; half-life (Mouse pharmacokinetics; iv, 3 mg/kg): 36 min; AUC (Mouse pharmacokinetics; po, 10 mg/kg): 267 ng·h/mL; Cmax (Mouse pharmacokinetics; po, 10 mg/kg): 200 ng/mL; Tmax (Mouse pharmacokinetics; po, 10 mg/kg): 15 min; bioavailability (Mouse pharmacokinetics; po, 10 mg/kg): 6%; CLB (Mouse pharmacokinetics): 34 mL/min/kg; Clb (Mouse pharmacokinetics): 27 % LBF; mean free (unbound) drug concentration relative to EC90 (Mouse pharmacokinetics): remained below the EC90; solubility (FaSSIF solubility): 325 µM (≈ 103 µg/mL); Heps CLi (r) [1]: 1.1 mL/min/g; Heps CLi (h) [2]: < 0.5 mL/min/g; fraction unbound [3]: 0.47; fraction unbound [4]: 0.42; IC50 (CYP450 1A2): > 100 µM; IC50 (CYP450 2C9): > 100 µM; Mini-Ames (4 strains ± S9) [5]: Negative; Extracellular acidification rate AC50 (mitochondrial function): No response; AC50 (mitochondrial function; [6]): > 100 µM; AC50 (mitochondrial function; read-out: Reserve capacity AC50): > 100 µM; IC50 (CpKRS): 1.7 µM; EC50 (C. hominis): 0.1 µM

**Q.** With `Nc1nc2c(c(C(F)(F)F)n1)C(=O)N(CC1CCCC(C(F)(F)F)C1)C2` (centres unmarked) [DDD489] as the compound, how does the IC50 (HsKRS) read?
**A.** 22 µM

**Q.** What about the “tolerability in uninfected calves” value (Calf tolerability study) of the same compound?
**A.** well tolerated

**Q.** What about the AUC (Mouse pharmacokinetics; iv, 3 mg/kg) of the same compound?
**A.** 2280 ng·h/mL

**Q.** What about the Vd (Mouse pharmacokinetics; iv, 3 mg/kg) of the same compound?
**A.** 2.8 L/kg

**Q.** What about the half-life (Mouse pharmacokinetics; iv, 3 mg/kg) of the same compound?
**A.** 90 min

**Q.** And the AUC (Mouse pharmacokinetics; po, 10 mg/kg)?
**A.** 517 ng·h/mL

**Q.** What about the Cmax (Mouse pharmacokinetics; po, 10 mg/kg) of the same compound?
**A.** 200 ng/mL

**Q.** What about the Tmax (Mouse pharmacokinetics; po, 10 mg/kg) of the same compound?
**A.** 60 min

**Q.** And the bioavailability (Mouse pharmacokinetics; po, 10 mg/kg)?
**A.** 7%

**Q.** And the CLB (Mouse pharmacokinetics)?
**A.** 22 mL/min/kg

**Q.** What about the Clb (Mouse pharmacokinetics) of the same compound?
**A.** 17 % LBF

**Q.** And the “mean free (unbound) drug concentration relative to EC90” value (Mouse pharmacokinetics)?
**A.** remained below the EC90

**Q.** And the solubility (FaSSIF solubility)?
**A.** 48 µM (≈ 18.4 µg/mL)

**Q.** What about the “Heps CLi (r)” value [1] of the same compound?
**A.** 1.9 mL/min/g

**Q.** What about the “Heps CLi (h)” value [2] of the same compound?
**A.** 1.1 mL/min/g

**Q.** And the fraction unbound [3]?
**A.** 0.42

**Q.** And the fraction unbound [4]?
**A.** 0.23

**Q.** And the IC50 (CYP450 1A2)?
**A.** 40 µM

**Q.** What about the IC50 (CYP450 2C9) of the same compound?
**A.** 32 µM

**Q.** And the “Mini-Ames (4 strains ± S9)” value [5]?
**A.** Negative

**Q.** And the “Extracellular acidification rate AC50” value (mitochondrial function)?
**A.** No response

**Q.** And the “Reserve capacity AC50” value (mitochondrial function)?
**A.** No response

**Q.** And the AC50 (mitochondrial function; [6])?
**A.** > 100 µM

**Q.** What about the IC50 (CpKRS) of the same compound?
**A.** 0.85 µM

**Q.** What about the EC50 (C. hominis) of the same compound?
**A.** 0.04 µM
